{"source": "PubChem BioAssay AID1645848"}
{"conditions": "buffer; pH 7.4; 6.0 h; 150.0 µM", "units": {"solubility kinetic": "µg/mL"}}
{"smiles": "CCOc1ccc(-c2nnc(SCC(=O)NCc3ccccc3Cl)o2)cc1", "solubility kinetic": "< 1"}
{"smiles": "Cc1ccc([S+](=O)([O-])n2cc(-c3ccc(-c4ccccc4)cc3)c3ccccc32)cc1", "solubility kinetic": "< 1"}
{"smiles": "COc1ccc(CN2CCc3c(c(=O)n4ncc(C(=O)N5CCN(c6ccccc6OC)CC5)c4n3C)C2)cc1", "solubility kinetic": 14.2}
{"smiles": "O=C(Nc1nc(-c2ccccc2)cs1)c1ccncc1NS(=O)(=O)c1ccccc1", "solubility kinetic": 21.2}
{"smiles": "c1ccc(-c2ccc(CNc3nc(-c4ccccn4)nnc3-c3ccccc3)cc2)cc1", "solubility kinetic": "< 1"}
{"smiles": "O=C(Nc1ccccc1C(=O)Nc1ccccc1C(=O)NCc1ccco1)c1ccco1", "solubility kinetic": 4.45}
{"smiles": "NC(=O)C1CCN(c2nc(-c3ccc4c(c3)OCCO4)cs2)CC1", "solubility kinetic": 34.6}
{"smiles": "CC(C)(C)n1cnc2cc(C(=O)N3CCCCC3)ccc21", "solubility kinetic": "> 42"}
{"smiles": "Cc1ccc(NS(=O)(=O)c2ccc3[nH]c4c(c3c2)CCCCCC4)cc1", "solubility kinetic": "< 1"}
{"smiles": "Cn1c2ccccc2c2c3c(c4c5ccccc5n(CCC#N)c4c21)CNC3=O", "solubility kinetic": "< 1"}
{"smiles": "O=[S+]([O-])(Nc1cccc2cccnc12)c1ccc(NCc2ccc(Cl)cc2O)cc1", "solubility kinetic": "< 1"}
{"smiles": "Cc1ccc(-c2nc(NCC(=O)Nc3cccc(C(=O)O)c3)c3ccccc3n2)cc1", "solubility kinetic": "> 61"}
{"smiles": "O=C1CCCc2cc(S(=O)(=O)Nc3cnccc3C(=O)Nc3nc(-c4ccccc4)cs3)ccc2N1", "solubility kinetic": 62.9}
{"smiles": "Cc1onc(-c2ccc(F)cc2)c1COc1ccc(C(=O)N2CCS(=O)(=O)CC2)cn1", "solubility kinetic": "> 66"}
{"smiles": "O=C(Nc1nc(-c2ccc(Cl)s2)cs1)c1cccs1", "solubility kinetic": "< 1"}
{"smiles": "O=[S+]([O-])(Nc1nccs1)c1ccc(NCc2cc(F)cc(Cl)c2O)cc1", "solubility kinetic": 18.5}
{"smiles": "COc1cc2c3cc1Oc1c(O)c(OC)cc4c1[C@@H](Cc1ccc(cc1)Oc1cc(ccc1O)C[C@H]3N(C)CC2)N(C)CC4", "solubility kinetic": "> 88"}
{"smiles": "COC(=O)CNC(=O)c1nc(-c2ccc(Cl)nc2)c2cnccn12", "solubility kinetic": "> 61"}
{"smiles": "CCn1c(C(=O)NCCc2ccc(OC)cc2)cc2sccc21", "solubility kinetic": 2.08}
{"smiles": "COc1ccc(S(=O)(=O)Nc2cnccc2C(=O)Nc2nc(-c3ccccc3)cs2)cc1", "solubility kinetic": 54.1}
{"smiles": "Clc1ccccc1-c1nccc(-n2ccnc2)n1", "solubility kinetic": 7.3}
{"smiles": "COC(=O)C1=COC(C)C2CN3CCc4c([nH]c5cc(OC)c(OC)cc45)C3CC12", "note": "(configuration not stated)", "solubility kinetic": 46.9}
{"smiles": "Cn1cc(Cl)c(C2N=C(Nc3nc4ccccc4o3)NC3=C2C(=O)CCC3)n1", "note": "(configuration not stated)", "solubility kinetic": 36.4}
{"smiles": "Nc1nc2c(s1)C(c1cc(Cl)ccc1F)CC(=O)N2", "note": "(configuration not stated)", "solubility kinetic": 3.78}
{"smiles": "Cc1ccc(S(=O)(=O)Nc2ccccc2C(=O)Nc2nc(-c3ccc(Cl)cc3)cs2)cc1", "solubility kinetic": 7.04}
{"smiles": "Fc1cc(Nc2nc(-c3ccncc3)nc3ccccc23)ccc1-c1ccncc1", "solubility kinetic": "< 1"}
{"smiles": "Cc1nn2c(c1-c1ccccc1-c1ccccc1)N(CCC(C)C)CCC2", "solubility kinetic": "< 1"}
{"smiles": "CCNC(=O)c1coc(COc2ccc3c(c2)C(c2ccc(F)cc2)N(C(=O)CC(C)C)CC3)n1", "note": "(configuration not stated)", "solubility kinetic": 3.8}
{"smiles": "COc1ccc(CNc2ccc(S(=O)(=O)Nc3nccs3)cc2)cc1O", "solubility kinetic": 7.85}
{"smiles": "Nc1nc(Nc2ccc(S(N)(=O)=O)cc2)nn1C(=O)c1c(F)cccc1F", "solubility kinetic": 45.6}
{"smiles": "Cc1nn(Cc2ccccc2Cl)c(C)c1CN(C)CC(O)COc1ccc(Cl)cc1", "note": "(configuration not stated)", "solubility kinetic": 55.6}
{"smiles": "N=c1c2c(ncn1-c1ccccc1)Oc1ccc3ccccc3c1C2c1ccc2c(c1)CCO2", "note": "(configuration not stated)", "solubility kinetic": 2}
{"smiles": "O=C1CCCC2=C1C(c1[nH]ncc1Cl)N=C(Nc1nc3c(Br)cccc3o1)N2", "note": "(configuration not stated)", "solubility kinetic": "< 1"}
{"smiles": "CCc1ccc2ncc(C(=O)c3ccc(C)c(C)c3)c(N3CCC(C(N)=O)CC3)c2c1", "solubility kinetic": 2.27}
{"smiles": "Nc1ccccc1OCCn1c(CCNC(=O)C2CCCCC2)nc2ccccc21", "solubility kinetic": 44.5}
{"smiles": "Cc1ccc(S(=O)(=O)NCCC(=O)Nc2nc(-c3ccccc3)cs2)cc1", "solubility kinetic": "< 1"}
{"smiles": "COC(=O)c1ccc2c(C(=Nc3ccc(N(C)C(=O)CN4CCN(C)CC4)cc3)c3ccccc3)c(O)[nH]c2c1", "solubility kinetic": "< 1"}
{"smiles": "O=C1Nc2ccccc2/C1=C\\c1cc(F)c(O)c(F)c1", "solubility kinetic": "> 40"}
{"smiles": "Oc1ccccc1CN1CCNc2cc(Nc3ccccc3)ncc2C1", "solubility kinetic": 24.3}
{"smiles": "COc1c(C)c2c(c(O)c1C/C=C(\\C)CCC(=O)OCCN1CCOCC1)C(=O)OC2", "solubility kinetic": "> 64"}
{"smiles": "Cc1nc2ccc(C(=O)N3CCC4(CC3)CC(=O)c3c(cnn3C(C)C)C4)cc2[nH]1", "solubility kinetic": "> 60"}
{"smiles": "CC[S+](=O)([O-])Nc1ccccc1C(=O)Nc1nc(-c2ccccc2)cs1", "solubility kinetic": 40.5}
{"smiles": "COc1ccc(Nc2cnc3ccc(-c4ccc(OC)c(OC)c4)nn23)cc1", "solubility kinetic": "< 1"}
{"smiles": "CCCNC(=O)c1ccc2c(c1)N=C(C)c1c(C)ccc(C)c1S2", "solubility kinetic": 2.73}
{"smiles": "CCc1nnc(NC(=O)c2nc(S(=O)(=O)Cc3ccc(C)cc3)ncc2Cl)s1", "solubility kinetic": "> 65"}
{"smiles": "CN1CCN(C2=Nc3ccccc3Sc3ccc(Cl)cc32)CC1", "solubility kinetic": 18.7}
{"smiles": "CN(C)c1cccc(-c2nc(N3CCC(C(N)=O)CC3)ncc2F)c1", "solubility kinetic": 42.6}
{"smiles": "Cc1ccc2c(c1)[nH]c1c(N3CCN(Cc4ccccc4)CC3)ncnc12", "solubility kinetic": "< 1"}
{"smiles": "CCN1CCN(c2ncc3c(n2)CCN(Cc2cc(Br)cs2)C3)CC1", "solubility kinetic": 37.1}
{"smiles": "Cc1ccc(OCCn2c(CCNC(=O)c3ccc(Cl)cc3)nc3ccccc32)cc1", "solubility kinetic": "< 1"}
{"smiles": "CCOC(=O)N1CCc2c(sc(NCc3ccc(N(C)C)cc3)c2C(=O)Nc2ccc(OC)cc2)C1", "solubility kinetic": 2}
{"smiles": "CCOc1ccc(CCNC(=O)c2cc3c(s2)CCC3)cc1OCC", "solubility kinetic": 4.46}
{"smiles": "COc1cccc(C(=O)Nc2nc(-c3nnn(-c4cc(C)ccc4C)c3C)ns2)c1", "solubility kinetic": 1.2}
{"smiles": "CCOC(=O)Cc1ccc(NC(=O)n2ncc3cc(Cl)ccc32)cc1", "solubility kinetic": "< 1"}
{"smiles": "CCc1[nH]c2ccc(CNC(=O)Cc3cnc4c(C)cccn34)cc2c1C", "solubility kinetic": 17.3}
{"smiles": "CC(=O)c1c(C)[nH]c(C(=O)Nc2cccc([S+](=O)([O-])Nc3ccncc3)c2)c1C", "solubility kinetic": "> 61"}
{"smiles": "O=S(=O)(Nc1nccs1)c1ccc(NCc2cccc(Cl)c2Cl)cc1", "solubility kinetic": "< 1"}
{"smiles": "O=S(=O)(c1ccc(Cl)cc1)c1ccccn1", "solubility kinetic": 31.8}
{"smiles": "CN(C)CC(=O)NC1CCCc2c1cnn2-c1ccc(F)cc1F", "note": "(configuration not stated)", "solubility kinetic": "> 33"}
{"smiles": "COC(=O)c1ccnc(NC(=S)N2CCN(c3cccc(C(F)(F)F)c3)CC2)c1", "solubility kinetic": 2.19}
{"smiles": "Cc1ccc(NC(=O)c2cc(-c3ccc[nH]3)n[nH]2)cc1F", "solubility kinetic": "> 28"}
{"smiles": "CCCCCn1c(CCCNC(=O)c2ccccc2OC)nc2ccccc21", "solubility kinetic": 32.3}
{"smiles": "CCC(CC)C(=O)NC[C@@H]1C=C(C)[C@H](Cc2nc3c(C)cccc3[nH]2)C[C@H]1C(C)C", "solubility kinetic": 4.34}
{"smiles": "Cc1ccc(S(=O)(=O)Nc2cnccc2C(=O)Nc2nc(-c3ccc(Cl)cc3)cs2)cc1", "solubility kinetic": "< 1"}
{"smiles": "CCC[C@@H]1CN(C(=O)c2ccc(-c3ccc(C)o3)cc2)C[C@H]1NC(C)=O", "solubility kinetic": "> 52"}
{"smiles": "CC[C@H]1CN2CCC3CC(OC)C(OC)CC3[C@@H]2C[C@@H]1C[C@H]1NCCC2=C1CC(OC)=C(O)C2", "note": "(some centres not stated)", "solubility kinetic": 44.6}
{"smiles": "CCCN(C(=O)c1sc2nc3n(c(=O)c2c1C)CCCC3)c1ccccc1C", "solubility kinetic": 1.83}
{"smiles": "CCCN1CNc2c(c(=O)[nH]c(=S)n2CCc2cccc(Cl)c2Cl)C1", "solubility kinetic": 13.4}
{"smiles": "CCOc1ccc(CNC(=O)CCCn2nc(C)c3c(C)n(-c4ccc(C)cc4)nc3c2=O)cc1", "solubility kinetic": 1.48}
{"smiles": "Cc1ccccc1C(=O)N1CCc2cc(-n3cc(NC(=O)Cc4ccccc4)cn3)ccc21", "solubility kinetic": "< 1"}
{"smiles": "NC(=O)C1CCN(c2ncc(-c3ccc(Cl)cc3)s2)CC1", "solubility kinetic": "< 1"}
{"smiles": "Cc1cc(C)nc(NC(=S)N2CCN(c3ccc(C(F)(F)F)cc3[N+](=O)[O-])CC2)c1", "solubility kinetic": 6.89}
{"smiles": "CCC(CC)c1cc([C@H]2CN3CC[C@H]2C[C@@H]3CNS(=O)(=O)c2cccs2)nc(-c2ccncc2)n1", "solubility kinetic": 52.2}
{"smiles": "Cc1cc(C)c(C(=O)Nc2cccc([S+](=O)([O-])Nc3ccc(Br)cc3)c2)[nH]1", "solubility kinetic": "< 1"}
{"smiles": "Cc1nsc(N)c1C(=O)N(C)CCOc1ccccc1Cl", "solubility kinetic": "> 48"}
{"smiles": "O=C(Nc1ccc(-c2ccccc2)cc1)[C@H](Cc1ccc(O[S+](=O)([O-])c2cccc3cnccc23)cc1)N[S+](=O)([O-])c1cccc2cnccc12", "solubility kinetic": "< 1"}
{"smiles": "O=C(NC1CCCc2c1cnn2-c1ccc(F)cc1F)c1ccc(C2(C(F)(F)F)N=N2)cc1", "note": "(configuration not stated)", "solubility kinetic": "< 1"}
{"smiles": "COc1c(Cl)cc2c([nH]c3cnccc32)c1NC(=O)c1cccnc1C", "solubility kinetic": 6.08}
{"smiles": "COC(=O)c1c(NC(=O)Cc2coc3cc(C)ccc23)sc2c1CCC2", "solubility kinetic": "< 1"}
{"smiles": "COc1ccc(NC(=O)c2[nH]c(C)c(C(C)=O)c2C)cc1S(=O)(=O)Nc1ccc(C#N)cc1", "solubility kinetic": 4.06}
{"smiles": "NC(=O)c1sc2nc3c(c(-c4cccs4)c2c1N)CCCC3", "solubility kinetic": 0.293}
{"smiles": "CCC(CC)c1cc([C@H]2CN3CC[C@H]2C[C@@H]3CNC(C)=O)nc(-c2ccncc2)n1", "solubility kinetic": "> 60"}
{"smiles": "Cc1cccc(-c2noc([C@@H]3Cc4nc[nH]c4CN3C(=O)CC(C)(C)CC(=O)O)n2)c1", "solubility kinetic": "> 63"}
{"smiles": "Cc1ccc(-c2cc(C(=O)Nc3ccc(S(N)(=O)=O)cc3)c3ccccc3n2)cc1C", "solubility kinetic": "< 1"}
{"smiles": "CC(C)CS(=O)(=O)c1oc(-c2ccc(F)cc2)nc1S(=O)(=O)c1ccccc1", "solubility kinetic": "< 1"}
{"smiles": "C[C@H]1[C@@H](CCC(=O)Nc2ccc(F)cc2)O[C@@H]2O[C@]3(C)CC[C@@H]4[C@H](C)CC[C@@H]1[C@@]24OO3", "solubility kinetic": 24}
{"smiles": "Cc1ccc(S(=O)(=O)Nc2ccccc2C(=O)Nc2nc(-c3ccccc3)co2)cc1", "solubility kinetic": "< 1"}
{"smiles": "NCC(=O)Nc1ccc(Cl)cc1C(=O)c1ccc[nH]1", "solubility kinetic": "> 41"}
{"smiles": "CCCn1cnc2cc(NCc3ccc(OC)cc3OC)ccc21", "solubility kinetic": 40.3}
{"smiles": "CCc1cc(Cl)c(OC)c(C(=O)NC[C@@H]2CCCN2CC)c1O.Cl", "solubility kinetic": 27.3}
{"smiles": "CN(C(=O)CNC(=O)c1ccccc1OCC(=O)Nc1ccc(I)cc1)c1ccccc1", "solubility kinetic": 1.28}
{"smiles": "O=C(Nc1nc2cc(C(F)(F)F)ccc2s1)c1ccc(-c2cccc([N+](=O)[O-])c2)o1", "solubility kinetic": "< 1"}
{"smiles": "COc1c(O)cc2c(c1OC)-c1ccc(SC)c(=O)cc1C(NC(C)=O)CC2", "note": "(configuration not stated)", "solubility kinetic": "> 59"}
{"smiles": "CCOc1ccccc1N1CC(c2nc3ccccc3n2CCOc2ccc(C(C)(C)C)cc2)CC1=O", "note": "(configuration not stated)", "solubility kinetic": "< 1"}
{"smiles": "Cc1cc(-c2nnc3n2CCCCC3)c(C)n1-c1cccc2ccccc12", "solubility kinetic": 15.6}
{"smiles": "NC(=O)C1CCN(c2ncc(-c3cccc(F)c3)s2)CC1", "solubility kinetic": 17.7}
{"smiles": "CCCCCn1cc2c(c1-c1ccc(Br)cc1)c(=O)n(C)c(=O)n2C", "solubility kinetic": "< 1"}
